Laboratory results reported in patent US20210038753A1, “BIOLOGICAL STERILIZATION INDICATOR WITH STERILANT RESISTANCE MODULATOR” (3M INNOVATIVE PROPERTIES COMPANY, priority 2014, published 2021).

Tests used:
Format in all cases: cell-based
[1] = tested on: Geobacillus stearothermophilus spores; assay: Resistance of self-contained biological indicators to hydrogen peroxide sterilization, glucosidase enzyme activity fluorescence readout (ENZ+)
Method: (§1) PET film (.09 mm thick) was coated with colloidal silica as described in International Publication No. WO2014/189716, which is incorporated herein by reference in its entirety. […] Separate aqueous spore coating solutions were prepared as described in Example 1 with the amino acids shown in table 4 present in the coating solutions. Two microliter aliquots (containing at least 10^6 spores) of the respective spore coating solutions were deposited onto the silica-coated PET film, forming a series of spaced-apart spots on the film. The spore coated films were dried in a 60° C. incubator for 12 minutes. Circular discs (hereinafter, “coated carriers”) of the PET film, each disc including one of the dried spots, were punched out and were used to assemble self-contained biological indicators (BI) similar to that shown in FIG. 1 of International Publication No. WO2014/189716. The coated carriers described above were placed into the “spore carrier 135” shown in FIG. 1 of International Publication No. WO2014/189716. Each self-contained BI comprised a polycarbonate outer container, a breaker, a cap, and a cap filter. Disposed inside the outer container were a coated carrier along with an ampoule media containing the nutrient medium from 3M ATTEST 1292 Rapid Readout Biological Indicators plus 5g/L methionine (as described in Example 1).
(§2) The self-contained biological indicators with different concentrations of additives (Table 4) were exposed to hydrogen peroxide sterilization in STERRAD NX sterilizer. The sterilization processes were run by manually injecting 1.0 ml of 59% hydrogen peroxide per load, unless specified otherwise. The exposure time was varied to determine the resistance profile of self-contained BIs with different additive formulations. The BIs were activated by pressing down the cap to break the media ampoule. The activated BIs were placed in a bench-top fluorimeter (3M Company, St. Paul, Minn.) to detect fluorescence.
(§3) A self-contained BI that is not completely inactivated (i.e., not all of the spores are killed by the sterilization process) will resume cellular functions upon activation of the BI. The production of glucosidase enzyme by surviving spores is an indication that at least one of the spores have not been inactivated (killed) by the sterilization process. The glucosidase enzyme cleaves the 4-methylumbelliferyl-glucoside (MUG) releasing the fluorescent methyl umbelliferone, which is detected using a bench-top fluorimeter. Growth and proliferation of spores in the self-contained biological indicator can also be detected by a pH change, which may be detected by a color change of the pH indicator in the growth medium.
(§4) Self-contained biological indicators were prepared (with various additives listed in table 4) as described above in this Example. For each additive tested, a lower range and a higher range was used as a preliminary screen to identify additives modulated the resistance of the spores to the sterilant. Five self-contained BIs representing each condition were exposed to hydrogen peroxide sterilization in STERRAD NX sterilizer. The sterilization processes used a constant injection volume (1.0 ml of 59% hydrogen peroxide) and various times (e.g., 20 seconds to 7 minutes) of exposure to the hydrogen peroxide. The self-contained BIs were activated after exposure to the sterilization process and were monitored for fluorescence using a bench-top fluorimeter) and pH based color change (visually). […]
(§5) Self-contained biological indicators (with various additives listed in table 5) were prepared as described in Example 2. The self-contained biological indicators were exposed to hydrogen peroxide in a STERRAD NX sterilizer as described in Example 2. The self-contained BIs were activated after exposure to the sterilization process and were monitored for fluorescence using a bench-top fluorimeter and pH based color change (visually).

[2] = tested on: Geobacillus stearothermophilus spores; assay: Resistance of self-contained biological indicators to hydrogen peroxide sterilization, growth readout by pH colour change (GRO+)
Method: as §1, §2, §3, §4, §5

[3] = tested on: Geobacillus stearothermophilus spores; assay: Survival of spores (growth, pH indicator change) in modulator-treated self-contained biological indicators after H2O2 sterilant exposure (Example 1); conditions: for percentage of self-contained biological indicators that showed observable growth (pH indicator change): 2 minutes
Method: Tub-shaped spore carriers (polypropylene), similar to those described in International Publication No. WO2014/189716 with the exception that they were not coated with colloidal nanoparticles, were used. Liquid-cultured Geobacillus stearothermophilus spores (>10^6), were suspended in sterile water. Approximately 10 μL of the spore suspension was deposited onto the spore carriers and dried at room temperature. Aliquots (0 μL, 5 μL, or 10 μL, respectively) of a 0.5M sterile solution of L-homocysteine were deposited into the dried, spore-coated tub-shaped spore carrier. The homocysteine-coated tubs were dried at room temperature. Thus, the final dried coating on the carriers included at least 10^6 spores with 0, 2.5 or 5 micromoles of L-homocysteine, respectively.
FIG. 1. The outer container 12 was obtained from 3M ATTEST 1292 Rapid Biological Indicators (available from 3M Company; St. Paul, Minn.). The cap was obtained from 3M ATTEST 1261 Biological Indicators (3M Company). The nutrient medium was from 3M ATTEST 1292 ampoules with added methionine (5 g/L). Five individual self-contained biological indicators were exposed to different concentrations (listed in Table 3) of hydrogen peroxide for 2 minutes in a STERRAD NX sterilizer. After exposing them to the sterilization process, all of the self-contained biological indicators were activated by crushing the ampoule inside the outer container.

[4] = Table 4, modulator 0.01 weight percent in spore coating solution, H2O2 exposure 30 sec.
[5] = Table 4, modulator 0.01 weight percent in spore coating solution, H2O2 exposure 60 sec.
[6] = Table 4, modulator 0.01 weight percent in spore coating solution, H2O2 exposure 90 sec.
[7] = Table 4, modulator 0.01 weight percent in spore coating solution, H2O2 exposure 3 min.
[8] = Table 4, modulator 0.01 weight percent in spore coating solution, H2O2 exposure 7 min.
[9] = Table 4, modulator 0.1 weight percent in spore coating solution, H2O2 exposure 30 sec.
[10] = Table 4, modulator 0.1 weight percent in spore coating solution, H2O2 exposure 60 sec.
[11] = Table 4, modulator 0.1 weight percent in spore coating solution, H2O2 exposure 90 sec.
[12] = Table 4, modulator 0.1 weight percent in spore coating solution, H2O2 exposure 3 min.
[13] = Table 4, modulator 0.1 weight percent in spore coating solution, H2O2 exposure 7 min.

O=C(O)[C@@H]1CCCN1 [L-proline, reference compound]
percentage of self-contained biological indicators positive for glucosidase enzyme activity (ENZ+) [1, 4]: 100%
percentage of self-contained biological indicators positive for glucosidase enzyme activity (ENZ+) [1, 5]: 100%
percentage of self-contained biological indicators positive for glucosidase enzyme activity (ENZ+) [1, 6]: 100%
percentage of self-contained biological indicators positive for glucosidase enzyme activity (ENZ+) [1, 7]: 0%
percentage of self-contained biological indicators positive for glucosidase enzyme activity (ENZ+) [1, 8]: 0%
percentage of self-contained biological indicators positive for glucosidase enzyme activity (ENZ+) [1, 9]: 100%
percentage of self-contained biological indicators positive for glucosidase enzyme activity (ENZ+) [1, 10]: 100%
percentage of self-contained biological indicators positive for glucosidase enzyme activity (ENZ+) [1, 11]: 100%
percentage of self-contained biological indicators positive for glucosidase enzyme activity (ENZ+) [1, 12]: 0%
percentage of self-contained biological indicators positive for glucosidase enzyme activity (ENZ+) [1, 13]: 0%
sensitivity of the biological indicator to the sterilization process relative to the control with no additives ([2]; Example 2 / Comparative Example 1 (Table 4), fluorescence and growth readouts): did not result in an increased sensitivity
percentage of self-contained biological indicators positive for growth (GRO+) [2, 4]: 100%
percentage of self-contained biological indicators positive for growth (GRO+) [2, 5]: 100%
percentage of self-contained biological indicators positive for growth (GRO+) [2, 6]: 100%
percentage of self-contained biological indicators positive for growth (GRO+) [2, 7]: 0%
percentage of self-contained biological indicators positive for growth (GRO+) [2, 8]: 0%
percentage of self-contained biological indicators positive for growth (GRO+) [2, 9]: 100%
percentage of self-contained biological indicators positive for growth (GRO+) [2, 10]: 100%
percentage of self-contained biological indicators positive for growth (GRO+) [2, 11]: 100%
percentage of self-contained biological indicators positive for growth (GRO+) [2, 12]: 0%
percentage of self-contained biological indicators positive for growth (GRO+) [2, 13]: 0%

N[C@@H](CCS)C(=O)O [L-homocysteine]
resistance of spores to H2O2 compared to 0 micromoles of L-homocysteine ([3]; 2.5 micromoles of L-homocysteine, seen with 0.6 ml and 0.8 ml of 59% H2O2): decrease in resistance of spores
percentage of self-contained biological indicators that showed observable growth (pH indicator change) ([3]; 2.5 micromoles of homocysteine, 0.1 ml of 59% H2O2 (94 mg × Sec/L)): 100%
percentage of self-contained biological indicators that showed observable growth (pH indicator change) ([3]; 2.5 micromoles of homocysteine, 0.2 ml of 59% H2O2 (222 mg × Sec/L)): 80%
percentage of self-contained biological indicators that showed observable growth (pH indicator change) ([3]; 2.5 micromoles of homocysteine, 0.4 ml of 59% H2O2 (458 mg × Sec/L)): 60%
percentage of self-contained biological indicators that showed observable growth (pH indicator change) ([3]; 2.5 micromoles of homocysteine, 0.6 ml of 59% H2O2 (689 mg × Sec/L)): 60%
percentage of self-contained biological indicators that showed observable growth (pH indicator change) ([3]; 2.5 micromoles of homocysteine, 0.8 ml of 59% H2O2 (842 mg × Sec/L)): 20%
resistance of spores to H2O2 ([3]; 5.0 micromoles of L-homocysteine, all kill with 0.4 ml of 59% H2O2): reduced the resistance of spores significantly
percentage of self-contained biological indicators that showed observable growth (pH indicator change) ([3]; 5.0 micromoles of homocysteine, 0.1 ml of 59% H2O2 (94 mg × Sec/L)): 100%
percentage of self-contained biological indicators that showed observable growth (pH indicator change) ([3]; 5.0 micromoles of homocysteine, 0.2 ml of 59% H2O2 (222 mg × Sec/L)): 40%
percentage of self-contained biological indicators that showed observable growth (pH indicator change) ([3]; 5.0 micromoles of homocysteine, 0.4 ml of 59% H2O2 (458 mg × Sec/L)): 0%
percentage of self-contained biological indicators that showed observable growth (pH indicator change) ([3]; 5.0 micromoles of homocysteine, 0.6 ml of 59% H2O2 (689 mg × Sec/L)): 0%
percentage of self-contained biological indicators that showed observable growth (pH indicator change) ([3]; 5.0 micromoles of homocysteine, 0.8 ml of 59% H2O2 (842 mg × Sec/L)): 0%
